Literature values as cited in patent US10294264B2, “Oxysterol-therapeutic agent derivative for bone healing” (Warsaw Orthopedic, Inc., priority 2017, dated 2019).
Read-outs that look alike come from different tables or passages of the source.

Columns and labels:
Mesenchymal stem cells = settings: mesenchymal stem cells treated with compound
spine fusion model [1] = settings: rabbit spine fusion model
spine fusion model [2] = settings: rat spine fusion model
osteoprogenitor cells = settings: in vitro

CCCCCC[C@](C)(O)[C@H]1CC[C@H]2[C@@H]3C[C@H](O)[C@H]4C[C@@H](O)CC[C@]4(C)[C@H]3CC[C@@]21C [OXY133, (3S,5S,6S,8R,9S,10R,13S,14S,17S)-17-((S)-2-hydroxyoctan-2-yl)-10,13-dimethylhexadecahydro-1H-cyclopenta[a]phenanthrene-3,6-diol]
osteoblast differentiation (Mesenchymal stem cells): increased osteoblast differentiation
bone formation in vivo (spine fusion model [1]): robust bone formation
bone formation in vivo (spine fusion model [2]): robust bone formation
osteogenic differentiation of osteoprogenitor cells (osteoprogenitor cells): induces osteogenic differentiation
